Tests used:
ducksalad = experiment: Test B flooded paddy test; assay type: in vivo, Heteranthera limosa; conditions: 250 g ai/ha, Flood, 13 days, 0 to 100 scale (0 no effect, 100 complete control)
Summary of the method: (§1)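 Species grown to 2-leaf stage; pots flooded 3 cm above soil and compound applied directly to paddy water, depth maintained throughout. After 13 days in greenhouse, plants visually rated against controls on 0–100 scale (0 no effect, 100 complete control); dash means no result.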

rice = experiment: Test B flooded paddy test; assay type: in vivo, Oryza sativa; conditions: 250 g ai/ha, Flood, 13 days, 0 to 100 scale (0 no effect, 100 complete control)
Summary of the method: as §1

pigweed, palmer [1] = experiment: Test A postemergence; assay type: in vivo, Amaranthus palmeri; conditions: postemergence, 10 days; for Pigweed, Palmer plant response rating: 125 g ai/ha, 0 to 100 scale, 0 no effect, 100 complete control; for Plant response rating, Pigweed, Palmer: 500 g ai/ha, visual injury, 0 to 100 scale (0 no effect, 100 complete control)
Summary of the method: (§2)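 Visual injury ratings on a 0–100 scale (100 = complete control) versus untreated controls, taken 10 days after treatment in greenhouse. Preemergence: directed soil spray onto seeded loam/sand. Postemergence: foliar application at one- to two-leaf stage, plants 2–10 cm. Formulation: non-phytotoxic solvent plus surfactant.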

pigweed, palmer [2] = experiment: Test A preemergence; assay type: in vivo, Amaranthus palmeri; conditions: 0 to 100 scale
Summary of the method: as §2

wheat [3] = experiment: Test A preemergence; assay type: in vivo, Triticum aestivum; conditions: 0 to 100 scale
Summary of the method: as §2

ryegrass, Italian [4] = experiment: Test A preemergence; assay type: in vivo, Lolium multiflorum; conditions: 0 to 100 scale
Summary of the method: as §2

corn [5] = experiment: Test A preemergence; assay type: in vivo, Zea mays; conditions: 0 to 100 scale
Summary of the method: as §2

horseweed = experiment: Test A postemergence; assay type: in vivo, Erigeron canadensis; conditions: postemergence, 10 days; for Horseweed plant response rating: 125 g ai/ha, 0 to 100 scale, 0 no effect, 100 complete control; for Plant response rating, Horseweed: 500 g ai/ha, visual injury, 0 to 100 scale (0 no effect, 100 complete control)
Summary of the method: as §2

ragweed [6] = experiment: Test A postemergence; assay type: in vivo, Ambrosia artemisiifolia; conditions: postemergence, 10 days; for Ragweed plant response rating: 125 g ai/ha, 0 to 100 scale, 0 no effect, 100 complete control; for Plant response rating, Ragweed: 500 g ai/ha, visual injury, 0 to 100 scale (0 no effect, 100 complete control)
Summary of the method: as §2

oat, wild [7] = experiment: Test A preemergence; assay type: in vivo, Avena fatua; conditions: 0 to 100 scale
Summary of the method: as §2

foxtail, giant [8] = experiment: Test A postemergence; assay type: in vivo, Setaria faberi; conditions: postemergence, 10 days; for Foxtail, Giant plant response rating: 125 g ai/ha, 0 to 100 scale, 0 no effect, 100 complete control; for Plant response rating, Foxtail, Giant: 500 g ai/ha, visual injury, 0 to 100 scale (0 no effect, 100 complete control)
Summary of the method: as §2

sedge, umbrella = experiment: Test B flooded paddy test; assay type: in vivo, Cyperus difformis; conditions: 250 g ai/ha, Flood, 13 days, 0 to 100 scale (0 no effect, 100 complete control)
Summary of the method: as §1

corn [9] = experiment: Test A postemergence; assay type: in vivo, Zea mays; conditions: postemergence, 10 days; for Corn plant response rating: 125 g ai/ha, 0 to 100 scale, 0 no effect, 100 complete control; for Plant response rating, Corn: 500 g ai/ha, visual injury, 0 to 100 scale (0 no effect, 100 complete control)
Summary of the method: as §2

wheat [10] = experiment: Test A postemergence; assay type: in vivo, Triticum aestivum; conditions: postemergence, 10 days; for Wheat plant response rating: 125 g ai/ha, 0 to 100 scale, 0 no effect, 100 complete control; for Plant response rating, Wheat: 500 g ai/ha, visual injury, 0 to 100 scale (0 no effect, 100 complete control)
Summary of the method: as §2

barnyardgrass [11] = experiment: Test A preemergence; assay type: in vivo, Echinochloa crusgalli; conditions: visual injury after 10 days, 0 to 100 scale, 0 is no effect, 100 is complete control
Summary of the method: as §2

oat, wild [12] = experiment: Test A postemergence; assay type: in vivo, Avena fatua; conditions: postemergence, 10 days; for Oat, Wild plant response rating: 125 g ai/ha, 0 to 100 scale, 0 no effect, 100 complete control; for Plant response rating, Oat, Wild: 500 g ai/ha, visual injury, 0 to 100 scale (0 no effect, 100 complete control)
Summary of the method: as §2

blackgrass [13] = experiment: Test A postemergence; assay type: in vivo, Alopecurus myosuroides; conditions: postemergence, 10 days; for Blackgrass plant response rating: 125 g ai/ha, 0 to 100 scale, 0 no effect, 100 complete control; for Plant response rating, Blackgrass: 500 g ai/ha, visual injury, 0 to 100 scale (0 no effect, 100 complete control)
Summary of the method: as §2

kochia [14] = experiment: Test A preemergence; assay type: in vivo, Bassia scoparia; conditions: 0 to 100 scale
Summary of the method: as §2

soybean [15] = experiment: Test A postemergence; assay type: in vivo, Glycine max; conditions: postemergence, 10 days; for Soybean plant response rating: 125 g ai/ha, 0 to 100 scale, 0 no effect, 100 complete control; for Plant response rating, Soybean: 500 g ai/ha, visual injury, 0 to 100 scale (0 no effect, 100 complete control)
Summary of the method: as §2

ryegrass, Italian [16] = experiment: Test A postemergence; assay type: in vivo, Lolium multiflorum; conditions: postemergence, 10 days; for Ryegrass, Italian plant response rating: 125 g ai/ha, 0 to 100 scale, 0 no effect, 100 complete control; for Plant response rating, Ryegrass, Italian: 500 g ai/ha, visual injury, 0 to 100 scale (0 no effect, 100 complete control)
Summary of the method: as §2

barnyardgrass [17] = experiment: Test B flooded paddy test; assay type: in vivo, Echinochloa crus-galli; conditions: 250 g ai/ha, Flood, 13 days, 0 to 100 scale (0 no effect, 100 complete control)
Summary of the method: as §1

foxtail, giant [18] = experiment: Test A preemergence; assay type: in vivo, Setaria faberi; conditions: 0 to 100 scale
Summary of the method: as §2

ragweed [19] = experiment: Test A preemergence; assay type: in vivo, Ambrosia artemisiifolia; conditions: 0 to 100 scale
Summary of the method: as §2

barnyardgrass [20] = experiment: Test A postemergence; assay type: in vivo, Echinochloa crusgalli; conditions: postemergence, 10 days; for Barnyardgrass plant response rating: 125 g ai/ha, 0 to 100 scale, 0 no effect, 100 complete control; for Plant response rating, Barnyardgrass: 500 g ai/ha, visual injury, 0 to 100 scale (0 no effect, 100 complete control)
Summary of the method: as §2

kochia [21] = experiment: Test A postemergence; assay type: in vivo, Bassia scoparia; conditions: postemergence, 10 days; for Kochia plant response rating: 125 g ai/ha, 0 to 100 scale, 0 no effect, 100 complete control; for Plant response rating, Kochia: 500 g ai/ha, visual injury, 0 to 100 scale (0 no effect, 100 complete control)
Summary of the method: as §2

blackgrass [22] = experiment: Test A preemergence; assay type: in vivo, Alopecurus myosuroides; conditions: 0 to 100 scale
Summary of the method: as §2

galium = experiment: Test A postemergence; assay type: in vivo, Galium aparine; conditions: postemergence, 10 days; for Galium plant response rating: 125 g ai/ha, 0 to 100 scale, 0 no effect, 100 complete control; for Plant response rating, Galium: 500 g ai/ha, visual injury, 0 to 100 scale (0 no effect, 100 complete control)
Summary of the method: as §2

soybean [23] = experiment: Test A preemergence; assay type: in vivo, Glycine max; conditions: 0 to 100 scale
Summary of the method: as §2

[24] = 500 g ai/ha, visual injury after 10 days, 0 is no effect, 100 is complete control

CC(C)c1ncn(-c2ccc(OCC(F)(F)F)c(C(=O)N3C[C@H](C)Oc4c(Cl)cccc43)c2)n1 [Compound 141]
100: Plant response rating, Pigweed, Palmer (pigweed, palmer [1]) | Plant response rating, Pigweed, Palmer (pigweed, palmer [2]; 125 g ai/ha) | Plant response rating, Pigweed, Palmer (pigweed, palmer [2]; [24]) | Plant response rating, Ryegrass, Italian (ryegrass, Italian [4]; [24]) | Plant response rating, Foxtail, Giant (foxtail, giant [8]) | Soybean plant response rating (soybean [15]) | Plant response rating, Soybean (soybean [15]) | Plant response rating, Foxtail, Giant (foxtail, giant [18]; [24]) | Plant response rating, Galium (galium)
50: Plant response rating, Kochia (kochia [14]; [24]) | Plant response rating, Ragweed (ragweed [19]; [24])
25: Plant response rating, Barnyardgrass (barnyardgrass [17])
20: Plant response rating, Wheat (wheat [3]; 125 g ai/ha) | Plant response rating, Wheat (wheat [10]) | Plant response rating, Oat, Wild (oat, wild [12]) | Plant response rating, Blackgrass (blackgrass [22]; 125 g ai/ha)
0: Horseweed plant response rating (horseweed) | Plant response rating, Horseweed (horseweed) | Plant response rating, Kochia (kochia [14]; 125 g ai/ha) | Plant response rating, Ragweed (ragweed [19]; 125 g ai/ha)
90: Plant response rating, Ryegrass, Italian (ryegrass, Italian [4]; 125 g ai/ha) | Corn plant response rating (corn [9]) | Plant response rating, Corn (corn [9]) | Plant response rating, Barnyardgrass (barnyardgrass [11]; 500 g ai/ha) | Plant response rating, Ryegrass, Italian (ryegrass, Italian [16]) | Plant response rating, Foxtail, Giant (foxtail, giant [18]; 125 g ai/ha) | Plant response rating, Kochia (kochia [21])
70: Pigweed, Palmer plant response rating (pigweed, palmer [1]) | Plant response rating, Barnyardgrass (barnyardgrass [11]; 125 g ai/ha) | Plant response rating, Barnyardgrass (barnyardgrass [20]) | Plant response rating, Blackgrass (blackgrass [22]; [24])
95: Plant response rating, Sedge, Umbrella (sedge, umbrella)
30: Plant response rating, Ducksalad (ducksalad) | Plant response rating, Wheat (wheat [3]; [24]) | Ragweed plant response rating (ragweed [6]) | Blackgrass plant response rating (blackgrass [13]) | Ryegrass, Italian plant response rating (ryegrass, Italian [16]) | Barnyardgrass plant response rating (barnyardgrass [20])
80: Plant response rating, Oat, Wild (oat, wild [7]; [24]) | Plant response rating, Blackgrass (blackgrass [13]) | Kochia plant response rating (kochia [21]) | Galium plant response rating (galium) | Plant response rating, Soybean (soybean [23]; 125 g ai/ha) | Plant response rating, Soybean (soybean [23]; [24])
60: Plant response rating, Ragweed (ragweed [6]) | Plant response rating, Oat, Wild (oat, wild [7]; 125 g ai/ha) | Foxtail, Giant plant response rating (foxtail, giant [8])
10: Plant response rating, Rice (rice) | Plant response rating, Corn (corn [5]; 125 g ai/ha) | Plant response rating, Corn (corn [5]; [24]) | Wheat plant response rating (wheat [10]) | Oat, Wild plant response rating (oat, wild [12])

Cc1cccc2c1OC(C(F)(F)F)CN2C(=O)c1ccnc(-n2cncn2)c1 (centres unmarked) [Compound 144]
40: Plant response rating, Pigweed, Palmer (pigweed, palmer [1]) | Corn plant response rating (corn [9]) | Plant response rating, Oat, Wild (oat, wild [12])
0: Plant response rating, Rice (rice) | Horseweed plant response rating (horseweed) | Plant response rating, Horseweed (horseweed) | Ragweed plant response rating (ragweed [6]) | Plant response rating, Ragweed (ragweed [6]) | Oat, Wild plant response rating (oat, wild [12]) | Plant response rating, Kochia (kochia [14]; 125 g ai/ha) | Plant response rating, Barnyardgrass (barnyardgrass [17]) | Plant response rating, Ragweed (ragweed [19]; 125 g ai/ha) | Plant response rating, Soybean (soybean [23]; 125 g ai/ha)
60: Plant response rating, Oat, Wild (oat, wild [7]; [24]) | Plant response rating, Sedge, Umbrella (sedge, umbrella) | Plant response rating, Wheat (wheat [10]) | Plant response rating, Kochia (kochia [14]; [24]) | Plant response rating, Kochia (kochia [21])
70: Plant response rating, Corn (corn [9]) | Blackgrass plant response rating (blackgrass [13]) | Galium plant response rating (galium)
100: Plant response rating, Pigweed, Palmer (pigweed, palmer [2]; [24]) | Plant response rating, Ryegrass, Italian (ryegrass, Italian [4]; [24]) | Soybean plant response rating (soybean [15]) | Plant response rating, Soybean (soybean [15]) | Plant response rating, Foxtail, Giant (foxtail, giant [18]; 125 g ai/ha) | Plant response rating, Foxtail, Giant (foxtail, giant [18]; [24]) | Plant response rating, Galium (galium) | Plant response rating, Soybean (soybean [23]; [24])
20: Pigweed, Palmer plant response rating (pigweed, palmer [1]) | Wheat plant response rating (wheat [10]) | Barnyardgrass plant response rating (barnyardgrass [20])
50: Plant response rating, Wheat (wheat [3]; [24]) | Plant response rating, Corn (corn [5]; [24]) | Plant response rating, Barnyardgrass (barnyardgrass [11]; 125 g ai/ha) | Ryegrass, Italian plant response rating (ryegrass, Italian [16]) | Plant response rating, Blackgrass (blackgrass [22]; 125 g ai/ha)
10: Plant response rating, Pigweed, Palmer (pigweed, palmer [2]; 125 g ai/ha) | Kochia plant response rating (kochia [21])
90: Plant response rating, Ryegrass, Italian (ryegrass, Italian [4]; 125 g ai/ha) | Plant response rating, Foxtail, Giant (foxtail, giant [8]) | Plant response rating, Barnyardgrass (barnyardgrass [11]; 500 g ai/ha) | Plant response rating, Blackgrass (blackgrass [13]) | Plant response rating, Ryegrass, Italian (ryegrass, Italian [16]) | Plant response rating, Barnyardgrass (barnyardgrass [20])
65: Plant response rating, Ducksalad (ducksalad)
30: Plant response rating, Wheat (wheat [3]; 125 g ai/ha) | Plant response rating, Corn (corn [5]; 125 g ai/ha) | Plant response rating, Oat, Wild (oat, wild [7]; 125 g ai/ha) | Plant response rating, Ragweed (ragweed [19]; [24])
80: Foxtail, Giant plant response rating (foxtail, giant [8]) | Plant response rating, Blackgrass (blackgrass [22]; [24])
